Article PMC11003925, “Antimicrobial activity and properties of de novo design of short synthetic lipopeptides” (Folia Microbiologica, 2024)
Values after ≈ are worked out from the molar mass of the structure shown. Residues, ends and D or L forms follow the SMILES beside them. *: point of attachment. Palmitoyl = CCCCCCCCCCCCCCCC(=O)*

Tests used:
Ps. aeruginosa DBM 3081 = assay type: cell-based, Pseudomonas aeruginosa; details: 25 h
Protocol: (§1) A Bioscreen C automated microbiology growth curve analysis system (Growth Curves, Piscataway, NJ, USA) was used for the quantitative determination of antimicrobial activity (minimal inhibitory concentration, MIC) of PAL/LCA-peptides. Optical density was measured with a wide bandpass filter (wavelength range 420–580 nm) at regular intervals and temperatures. This assay was performed in a special microtiter plate (10 × 10 wells) that allowed the simultaneous testing of a large number of samples against several microorganisms. The total testing volume was 100 µL, obtained by mixing 10 µL of microbial culture with OD600 equal to 0.1 with growth medium and a solution of the tested compounds. The positive controls were vancomycin and tetracycline for Bacillus subtilis (100 µg/mL) for Gram-positive bacteria, kanamycin, and tetracycline for Acinetobacter baumannii (100 µg/mL) for Gram-negative bacteria, and clotrimazole or amphotericin (100 µg/mL) for fungi. The maximal concentration of tested lipoproteins was 1 mg/mL. A pure growth medium was used as the negative control. The measurement period was 25 h. The lowest concentration with a 100% inhibition effect for 24 h of incubation was chosen as the MIC. The antibacterial activity of each compound was expressed as the minimum inhibitory concentration MIC (MIC is the lowest concentration of the compound needed to inhibit the growth of bacterial cells) and IC50 (IC50 is the concentration of the compound needed to inhibit the growth of bacterial cells by 50%).

C. tropicalis DBM 2166 = assay type: cell-based, Candida tropicalis
Protocol: as §1

bacterial membrane = assay: Membrane disruption (released lactate dehydrogenase activity); assay type: cell-based, Staphylococcus aureus; details: 1 h incubation at 37 °C, LDH kit, triplets
Protocol: The disruption of the microbial membrane was followed by the detection of lactate dehydrogenase activity released from the intracellular space using a Cytotoxicity Detection Kit (LDH) from Roche (Korzeniewski and Callewaert [1983]; Macurkova et al. [2014]) after 1 h incubation at 37 °C with the PAL/LCA-peptide. The culture supernatant was collected and incubated with the reaction mixture from the kit. In the first step, NAD^+ is reduced to NADH + H^+ by the LDH-catalyzed conversion of lactate to pyruvate. In the second step, the catalyst (diaphorase) transfers H/H^+ from NADH + H^+ to the tetrazolium salt 2-(4-iodophenyl)-3-(4-nitrophenyl)-5-phenyl-2H-tetrazolium chloride (INT), which is reduced to formazan. The formazan dye formed is red and water-soluble and gives a broad absorption maximum at 500 nm. An increase in the amount of dead or plasma membrane-damaged cells results in an increase in the LDH activity in the cell culture supernatant.
To determine the degree of damage to the cell membrane (%) by the tested substances, averages of absorbances (triplets) were calculated from the measured values for the samples, controls, and pure medium. Subsequently, the absorbance average for the clean medium (background) was subtracted from all averages obtained in this way. The degree of damage to the cell membrane by the tested substances was expressed as follows: membranedamage%=((AVZ-∅ANK)/(∅APK-ANK))∙100 ∅AVZ⋯averageabsorbanceofsample ∅ANK⋯averageabsorbanceofnegativecontrol ∅APK⋯averageabsorbanceofpositivecontrol

Structure (SMILES): CCCCCCCCCCCCCCCC(=O)N[C@@H](CC(C)C)C(=O)N[C@H](C(=O)N[C@@H](CCCCN)C(=O)N[C@@H](CCCNC(=N)N)C(=O)N[C@@H](C)C(=O)NCC(N)=O)C(C)C [SHP-1.2, PAL-LVKRAG-NH2] (Palmitoyl-LVKRAG-NH2)
- IC50 (Ps. aeruginosa DBM 3081): 60.0 µg/mL (≈ 68.2 µM)
- MIC (C. tropicalis DBM 2166; DBM 2166, 24 h): 55.9 µg/mL (≈ 63.5 µM)
- IC50 (C. tropicalis DBM 2166; DBM 2166, 25 h): 100.0 µg/mL (≈ 114 µM)
- Membrane damage (%) (bacterial membrane; KP (potassium phosphate buffer)): 32 ± 4%
- Membrane damage (%) (bacterial membrane; MHB (Mueller–Hinton broth II)): 26 ± 3%
